Source: US20050054673A1, “Combination of phenylcarboxylic acid amides with beta-adrenoreceptor blockers and their use for the treatment of atrial arrhythmias” (Aventis Pharma Deutschland GmbH, priority 2003, published 2005)
Marks after values point to notes of the source that are not given here.

Tested on: left atrium of the pig
Assay: Refractory period in anaesthetized pigs (AERP, left atrium)
Format: in vivo
Conditions: for Increase after Example 1 in ms: infusion 3 mg/kg/h, vs. control; for Effect on the refractory period (in words): single substances, Example 1 or 5 after 1 h infusion of 3 mg/kg/h
Procedure: Investigation of the refractory period in anaesthetized pigs
The investigations were carried out in the anaesthetised pig as described by Knobloch et al. (Knobloch K., Brendel J., Peukert S., Rosenstein B., Busch A.-E., Wirth K.-J., “Electrophysiological and antiarrhythmic effects of the novel IKUR channel blockers, S9947 and S20951, on the left vs. right pig atrium in vivo in comparison with the IKr blockers dofetilide, azimilide, d, I-sotalol and ibutilide”, Naunyn-Schmiedeberg's Arch Pharmacol 2002, 366: 482-487). The action of beta-blockers and IKUR blockers on the refractory period of the left atrium was investigated. First, the action of the individual substances was tested, then the action of the combination of both individual substances.
Male pigs of native German breed of age 2-3 months and weight 23-30 kg were used.
The pigs were premedicated with 3 mL of Rompun® 2% ([…] 23.3 mg/mL=3 mg/kg; injected intramuscularly) and 6 mL of Hostaket® (ketamine 115 mg/mL=20 mg/kg; injected intramuscularly). Anesthesia was induced using an intravenous bolus injection of 5 mL of Narcoren® (pentobarbital 160 mg/mL=25-30 mg/kg; i.v.) and continuously supplied intravenously by means of a pentobarbital perfusor at 12-17 mg/kg/h. After tracheotomy and intubation, the animals were ventilated with oxygen by means of a respirator. A left-lateral thoracotomy was carried out in the fifth intercostal space. The lungs were retracted using sutures, the pericardium was opened and held using sutures so that the heart rocked in this. The tip of a MAP Pacing™ electrophysiology catheter (EP Technologies, Model 1675, Boston Scientific Corporation, 92257 La Garenne-Colombes Cedex, France) were then placed on the free wall of the left atrium in a right-angled position and fixed to the left atrium under constant pressure in a stand. The electrical stimulation was carried out using an external heart stimulator from Biotronik (UHS 20, Universal heart stimulator, Biotronik GmbH, 12359 Berlin, Germany).
Measurement of the atrial effective refractory period (AERP): The electrical atrial response to the external pacemaker stimulation was visualized by means of a mono phasic action potential (MAP), which was derived from the left atrium by means of the electrophysiology catheter. A conditioning stimulation cycle of 10 base intervals (S1) in a double stimulation amplitude followed a diastolic, prematurely coupled extrastimulus (S2, 1 ms pulse duration, 200 ms refractory period), which originated during a 5 ms decrement of a coupling interval, which was 30 ms above the expected effective refractory period (AERP). The 5 mS decrement in the coupling interval of the extrastimulus ran until the atrium no longer produced any response in the form of an action potential. The longest coupling interval which was no longer able to induce any atrial action potential was used as the effective refractory period. The refractory period was in each case investigated at three basal cycle length, 240, 300 and 400 ms).
Experimental groups: The sole action of atenolol (bolus administration of 1 mg/kg) on the refractory period was investigated in a separate group of pigs (n=5).

[1] = basal cycle length 240 ms, atenolol 1 mg/kg bolus i.v., n = 5
[2] = basal cycle length 300 ms, atenolol 1 mg/kg bolus i.v., n = 5
[3] = basal cycle length 400 ms, atenolol 1 mg/kg bolus i.v., n = 5

SMILES	Refractory period, mean value (basal cycle length 240 ms, Example 1 infused 3 mg/kg/h, after 1 h atenolol 1 mg/kg bolus, n = 6)	Increase after Example 1 in ms (basal cycle length 240 ms, n = 6)	Refractory period, mean value (basal cycle length 300 ms, Example 1 infused 3 mg/kg/h, after 1 h atenolol 1 mg/kg bolus, n = 6)	Increase after Example 1 in ms (basal cycle length 300 ms, n = 6)	Refractory period, mean value (basal cycle length 400 ms, Example 1 infused 3 mg/kg/h, after 1 h atenolol 1 mg/kg bolus, n = 6)	Increase after Example 1 in ms (basal cycle length 400 ms, n = 6)	Effect on the refractory period (in words)	Increase in ms of refractory period vs. control [1]	Refractory period, mean value [1]	Increase in ms of refractory period vs. control [2]	Refractory period, mean value [2]	Increase in ms of refractory period vs. control [3]	Refractory period, mean value [3]
COc1ccc(CC(=O)NCc2ccccc2-c2ccccc2C(=O)NCCc2cccnc2)cc1 [Example 1, 2′-{[2-(4-Methoxyphenyl)acetylamino]methyl}biphenyl-2-carboxylic acid (2-pyridin-3-ylethyl)amide]	136 milliseconds	35^# ms	149.5 milliseconds	40.7^# ms	166.2 milliseconds	52.3^# ms	increased to a stable level	–	–	–	–	–	–
CC(C)NCC(O)COc1ccc(CC(N)=O)cc1 (centres unmarked) [Atenolol, atenolol, reference compound]	–	–	–	–	–	–	–	25* ms	136 milliseconds	21* ms	129 milliseconds	11* ms	129 milliseconds
CCCCS(=O)(=O)Nc1ccccc1C(=O)N[C@H](CC)c1ccc(OC)nc1 [Example 5, 2-(Butyl-1-sulfonylamino)-N-[1(R)-(6-methoxypyridin-3-yl)-propyl]benzamide]	–	–	–	–	–	–	increased to a stable level	–	–	–	–	–	–
